Assay results: PMC12327690, “Secreted LysM proteins are required for niche competition and full virulence in Pseudomonas savastanoi during host plant infection” (PLOS Pathogens, 2025)

Target: T1, LysM3 (Pseudomonas savastanoi, UniProt Q48F89)
T1 construct: gene PSPPH_3810; LysM + M23 domains; pET28a::lysM3 in E. coli BL21(DE3), HisTrap IMAC then SEC
Assay: nanoDSF (Tycho NT.[…]) thermal shift
Assay type: binding
Settings: 1 mM ligand, 5 µM protein, no Zn2+, 20 mM Hepes pH 8.0, 150 mM NaCl

T1 sequence (Q48F89 entry or part of it): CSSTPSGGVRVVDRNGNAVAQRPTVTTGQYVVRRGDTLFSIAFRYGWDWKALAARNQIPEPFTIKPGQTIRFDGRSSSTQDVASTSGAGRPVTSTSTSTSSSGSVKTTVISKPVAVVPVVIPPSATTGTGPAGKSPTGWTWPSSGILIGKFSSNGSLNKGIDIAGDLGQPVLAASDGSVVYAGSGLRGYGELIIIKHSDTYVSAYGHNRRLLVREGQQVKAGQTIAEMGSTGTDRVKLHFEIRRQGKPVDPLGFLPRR

## CC(=O)N[C@H]1[C@H](O[C@H]2[C@H](O)[C@@H](NC(C)=O)C(O)O[C@@H]2CO)O[C@H](CO)[C@@H](O[C@@H]2O[C@H](CO)[C@@H](O[C@@H]3O[C@H](CO)[C@@H](O)[C@H](O)[C@H]3NC(C)=O)[C@H](O)[C@H]2NC(C)=O)[C@@H]1O (some centres unmarked) [NAG4, tetra-N-acetylglucosamine]
  Ti with ligand (LysM3 alone 51.4 ± 0.1): 52.9 ± 0.1 °C

## CC(=O)N[C@H]1[C@H](O[C@H]2[C@H](O)[C@@H](NC(C)=O)[C@H](O[C@H]3[C@H](O)[C@@H](NC(C)=O)C(O)O[C@@H]3CO)O[C@@H]2CO)O[C@H](CO)[C@@H](O[C@@H]2O[C@H](CO)[C@@H](O[C@@H]3O[C@H](CO)[C@@H](O[C@@H]4O[C@H](CO)[C@@H](O)[C@H](O)[C@H]4NC(C)=O)[C@H](O)[C@H]3NC(C)=O)[C@H](O)[C@H]2NC(C)=O)[C@@H]1O (some centres unmarked) [NAG6, hexa-N-acetylglucosamine]
  Ti with ligand (LysM3 alone 51.4 ± 0.1): 52.7 ± 0.4 °C
